Laboratory results: patent US10894817B2, “Fatty acid modified urocortin-2 analogs for the treatment of diabetes and chronic kidney disease” (priority 2016, dated 2021)
Like-named read-outs stand apart in the source and are kept apart here. Marks after values point to notes of the source that are not given here. Starred links: 1 amine or outer side, 2 acyl side, 3 side chain; linkers in the order of their positions; H or OH if unused. Non-standard residues stand in square brackets, D forms with d. Residues, ends and D or L forms follow the SMILES beside them. Groups on a side chain read outwards from the residue. *: point of attachment. C20 diacid = O=C(O)CCCCCCCCCCCCCCCCCCC(=O)*; γGlu = O=C(O)[C@H](CCC(=O)[*:2])N[*:1]; NMeI = CC[C@H](C)[C@H](NC)C(=O)O; AEEA = NCCOCCOCC(=O)O

Assays:
human CRHR2b = target: T1, human CRHR2b (Homo sapiens, UniProt Q13324); assay: human CRHR2b cell-based cAMP assay; details: cAMP assay, read-out: hCRHR2b Average EC50
T1 construct: expressed in transfected cells; host or cells: Chinese Hamster Ovary (CHO) cells, transient transfection
T1 sequence (Q13324 1-438 isoform Q13324-2): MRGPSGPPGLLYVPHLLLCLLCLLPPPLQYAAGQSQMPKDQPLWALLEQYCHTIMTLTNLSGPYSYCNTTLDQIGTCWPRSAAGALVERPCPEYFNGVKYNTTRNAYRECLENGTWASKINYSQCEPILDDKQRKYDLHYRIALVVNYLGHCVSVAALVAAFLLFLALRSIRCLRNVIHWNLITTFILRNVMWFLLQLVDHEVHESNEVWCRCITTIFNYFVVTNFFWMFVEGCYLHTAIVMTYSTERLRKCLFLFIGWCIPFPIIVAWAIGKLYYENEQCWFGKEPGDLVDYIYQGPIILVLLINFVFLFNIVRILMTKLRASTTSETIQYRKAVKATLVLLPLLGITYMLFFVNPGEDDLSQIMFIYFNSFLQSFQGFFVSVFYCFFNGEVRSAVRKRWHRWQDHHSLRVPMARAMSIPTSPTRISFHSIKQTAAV
In short: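 ED50 values are means ± SEM over several runs, curve-fitted from cAMP in pmol, calibrated against unlabeled-cAMP standards. Detection was HTRF competition, ratio 665/620 nm, after 30 min agonist exposure at 37 °C.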

[1] = test system: UniNx db/db AAV renin mice; assay: Uninephrectomized db/db AAV renin model of diabetic nephropathy; format: in vivo
Protocol: The uninephrectomized db/db adeno-associated viral (AAV) renin model represents a progressive model of diabetic kidney disease with hypertension driven by an AAV renin transgene (Am J Physiol Regul Integr Comp Physiol. 309(5):R467-74, (2015)).
The uninephrectomy (UniNx) surgery on female db/db mice on a C57BLKS/J background (obtained from Harlan Laboratories) is performed by Harlan Laboratories at 4 weeks of age with removal of the right kidney to accelerate the diabetic kidney disease. Animals are received at 5 weeks of age and housed in micro-isolator cages at 3 mice per cage and are on a 12 hour light/dark cycle. All db/db mice are fed ad libitum with Purina special diet 5008 and allowed free access to autoclaved water.
Mice are acclimated for 7 weeks prior to administration of AAV Renin (5×10^9 GC) intravenously by the retro-orbital sinus to induce persistent hypertension. Randomization by urine albumin to creatinine ratio (ACR), blood glucose and body weight is done at 15 weeks of age (a point at which renal disease and pathology are established in this model based on observations) into 2 groups of 12 saline control mice and 33 mice to receive Lisinopril treatment.
Dosing with Lisinopril (30 mg/L) begins at 16 weeks of age. After 2 weeks of Lisinopril treatment, the 33 mice are randomized by urine ACR, blood glucose and body weight into 4 groups (one group of 9 mice and 3 groups of 8 mice).
In the 4 groups of UniNx db/db AAV renin mice receiving Lisinopril treatment, either 0.9% physiological saline for injection (“saline control” N=9) or different dose levels of Example 4 (7.2, 24 or 72 nmol/kg, N=8 per dose level) are dosed at 0.2 mL s.c. per injection beginning at 18 weeks of age and continued 3 times weekly for 12 weeks. Albumin and creatinine are measured in urine with a Roche Hitachi Modular Analytics P analyzer with Roche reagents for detection of albumin and creatinine.
For all the groups, the parameters measured are body weight, kidney weight, heart weight, urine albumin to creatinine ratio, serum creatinine and renal pathology scores for mesangial matrix expansion, glomerular fibrosis, tubular regeneration, interstitial inflammation and interstitial fibrosis.
At 15 and 27 weeks of age, blood (30 to 50 uL) from all the UniNx db/db AAV Renin mice is obtained from the tail vein and dropped onto a Precision PCx blood glucose sensor electrode strip (Abbott Laboratories) for blood glucose determination with a MediSense Precision PCx glucometer (Abbott Laboratories). Blood glucose data is used to block the UniNx db/db mice into equivalent groups. Body weight is determined at baseline and at termination with a Metler Toledo Balance. The heart and kidney are removed at necropsy and weighed on a Metler Toledo Balance. Blood (500 ul) is collected from the retro-orbital sinus at termination under isoflurane anesthesia. The clotted blood is centrifuged to obtain serum. Serum is analyzed for creatinine on a Roche Hitachi Modular Analytics P analyzer with reagents from Roche.
Urine is collected by a spot collection method to collect urine over a 2-4 hr time period. An individual mouse is placed on top of a 96 well polypropylene microplate and then covered by a Plexiglas chamber with holes for breathing but no access to food or water. At the end of the time period, the urine is removed from the plate with a micropipette and placed on ice, centrifuged and subjected to albumin and creatinine analysis. Urine albumin, creatinine and glucose are determined on a Roche Hitachi Modular Analytics P analyzer. Urine creatinine is determined with the Creatinine Plus reagent by Roche. For urine albumin, the Roche Microalbumin assay is modified to adapt the calibration curve for measuring urine albumin in mice. Albuminuria was defined as albumin to creatinine ratio (ACR).
Kidneys are removed at study termination, fixed in formalin and processed for paraffin sectioning according to standard methodology. […]

[2] = Table 26, compounds of Example 9
[3] = CHO cells transfected with human CRHR2b, mean ± SEM of runs
[4] = Lisinopril plus Saline, after 12 weeks, scale none (0) to severe (5)
[5] = UniNx db/db AAV renin mice, Lisinopril plus Saline, after 12 weeks
[6] = UniNx db/db AAV renin mice, Lisinopril plus Saline, baseline

Compound: CC[C@H](C)[C@H](NC)C(=O)N[C@H](C(=O)N[C@H](C(=O)N[C@@H](CO)C(=O)N[C@@H](CC(C)C)C(=O)N[C@@H](CC(=O)O)C(=O)N[C@H](C(=O)N1CCC[C@H]1C(=O)N[C@H](C(=O)NCC(=O)N[C@@H](CC(C)C)C(=O)N[C@@H](CC(C)C)C(=O)N[C@@H](CCC(N)=O)C(=O)N[C@H](C(=O)N[C@@H](CC(C)C)C(=O)N[C@@H](CC(C)C)C(=O)N[C@@H](CCC(=O)O)C(=O)N[C@@H](CCC(N)=O)C(=O)N[C@@H](CCC(=O)O)C(=O)N[C@@H](CCCCN)C(=O)N[C@@H](CCC(N)=O)C(=O)N[C@@H](CCC(=O)O)C(=O)N[C@@H](CCCCN)C(=O)N[C@@H](CCC(=O)O)C(=O)N[C@@H](CCCCN)C(=O)N[C@@H](CCC(N)=O)C(=O)N[C@@H](CCC(N)=O)C(=O)N[C@@H](C)C(=O)N[C@@H](CCCCNC(=O)CC[C@H](NC(=O)COCCOCCNC(=O)COCCOCCNC(=O)CC[C@H](NC(=O)CC[C@H](NC(=O)CCCCCCCCCCCCCCCCCCC(=O)O)C(=O)O)C(=O)O)C(=O)O)C(=O)N[C@H](C(=O)N[C@@H](CC(N)=O)C(=O)N[C@@H](C)C(=O)N[C@@H](CCC(=O)O)C(=O)N[C@H](C(=O)N[C@@H](CC(C)C)C(=O)N[C@@H](C)C(=O)N[C@@H](CCC(N)=O)C(=O)N[C@H](C(N)=O)C(C)C)[C@@H](C)CC)[C@@H](C)O)[C@@H](C)CC)[C@@H](C)CC)C(C)C)[C@@H](C)O)C(C)C [Compound 66] (H-[NMeI]VTSLDVPIGLLQILLEQEKQEKEKQQAK([γGlu-AEEA-AEEA-γGlu-γGlu-C20 diacid])TNAEILAQV-NH2)
- EC50 (human CRHR2b; [2]): 1.45 nM

Compound: CC[C@H](C)[C@H](NC)C(=O)N[C@H](C(=O)N[C@H](C(=O)N[C@@H](CO)C(=O)N[C@@H](CC(C)C)C(=O)N[C@@H](CC(=O)O)C(=O)N[C@H](C(=O)N1CCC[C@H]1C(=O)N[C@H](C(=O)NCC(=O)N[C@@H](CC(C)C)C(=O)N[C@@H](CC(C)C)C(=O)N[C@@H](CCC(N)=O)C(=O)N[C@H](C(=O)N[C@@H](CC(C)C)C(=O)N[C@@H](CC(C)C)C(=O)N[C@@H](CCC(=O)O)C(=O)N[C@@H](CCC(N)=O)C(=O)N[C@@H](CCC(=O)O)C(=O)N[C@@H](CCCCN)C(=O)N[C@@H](CCC(N)=O)C(=O)N[C@@H](CCC(=O)O)C(=O)N[C@@H](CCCCN)C(=O)N[C@@H](CCC(=O)O)C(=O)N[C@@H](CCCCN)C(=O)N[C@@H](CCC(N)=O)C(=O)N[C@@H](CCC(N)=O)C(=O)N[C@@H](C)C(=O)N[C@@H](CCCCNC(=O)COCCOCCNC(=O)COCCOCCNC(=O)CC[C@H](NC(=O)CC[C@H](NC(=O)CCCCCCCCCCCCCCCCCCC(=O)O)C(=O)O)C(=O)O)C(=O)N[C@H](C(=O)N[C@@H](CC(N)=O)C(=O)N[C@@H](C)C(=O)N[C@@H](CCC(=O)O)C(=O)N[C@H](C(=O)N[C@@H](CC(C)C)C(=O)N[C@@H](C)C(=O)N[C@@H](CCC(N)=O)C(=O)N[C@H](C(N)=O)C(C)C)[C@@H](C)CC)[C@@H](C)O)[C@@H](C)CC)[C@@H](C)CC)C(C)C)[C@@H](C)O)C(C)C [Example 5] (H-[NMeI]VTSLDVPIGLLQILLEQEKQEKEKQQAK([AEEA-AEEA-γGlu-γGlu-C20 diacid])TNAEILAQV-NH2)
- EC50 (human CRHR2b; [3]): 1.01 ± 0.23 nM

Compound: CC[C@H](C)[C@H](NC)C(=O)N[C@H](C(=O)N[C@H](C(=O)N[C@@H](CO)C(=O)N[C@@H](CC(C)C)C(=O)N[C@@H](CC(=O)O)C(=O)N[C@H](C(=O)N1CCC[C@H]1C(=O)N[C@H](C(=O)NCC(=O)N[C@@H](CC(C)C)C(=O)N[C@@H](CC(C)C)C(=O)N[C@@H](CCC(N)=O)C(=O)N[C@H](C(=O)N[C@@H](CC(C)C)C(=O)N[C@H](C(=O)N[C@@H](CCC(=O)O)C(=O)N[C@@H](CCC(N)=O)C(=O)N[C@@H](CCC(=O)O)C(=O)N[C@@H](CCCCN)C(=O)N[C@@H](CCC(N)=O)C(=O)N[C@@H](CCC(=O)O)C(=O)N[C@@H](CCCCN)C(=O)N[C@@H](CCC(=O)O)C(=O)N[C@@H](CCCCN)C(=O)N[C@@H](CCC(N)=O)C(=O)N[C@@H](CCC(N)=O)C(=O)N[C@@H](C)C(=O)N[C@@H](CCCCNC(=O)COCCOCCNC(=O)COCCOCCNC(=O)CC[C@H](NC(=O)CC[C@H](NC(=O)CCCCCCCCCCCCCCCCCCC(=O)O)C(=O)O)C(=O)O)C(=O)N[C@H](C(=O)N[C@@H](CC(N)=O)C(=O)N[C@@H](C)C(=O)N[C@@H](CCC(=O)O)C(=O)N[C@H](C(=O)N[C@@H](CC(C)C)C(=O)N[C@@H](C)C(=O)N[C@@H](CCC(N)=O)C(=O)N[C@H](C(N)=O)C(C)C)[C@@H](C)CC)[C@@H](C)O)[C@@H](C)CC)[C@@H](C)CC)[C@@H](C)CC)C(C)C)[C@@H](C)O)C(C)C [Example 7] (H-[NMeI]VTSLDVPIGLLQILIEQEKQEKEKQQAK([AEEA-AEEA-γGlu-γGlu-C20 diacid])TNAEILAQV-NH2)
- EC50 (human CRHR2b; [3]): 0.94 ± 0.05 nM

Compound: NCCCC[C@H](N[C@@H](CCc1ccccc1)C(=O)O)C(=O)N1CCC[C@H]1C(=O)O [Lisinopril]
- Glomerular Fibrosis, pathology score [1, 4]: 1.4 ± 0.2 ^a
- Interstitial Fibrosis, pathology score [1, 4]: 2.0 ± 0.3 ^
- Interstitial Inflammation, pathology score [1, 4]: 1.1 ± 0.3 ^a
- Mesangial Matrix Expansion, pathology score [1, 4]: 2.1 ± 0.1 ^a
- Tubular Regeneration, pathology score [1, 4]: 2.0 ± 0.2 ^a
- Albumin to Creatinine Ratio (ACR) ([1]; Lisinopril plus Saline, week 0 of treatment with Example 4): 15203 ± 2835 ^
- Albumin to Creatinine Ratio (ACR) ([1]; Lisinopril plus Saline, week 1): 16491 ± 3362 ^
- Albumin to Creatinine Ratio (ACR) ([1]; Lisinopril plus Saline, week 2): 16160 ± 4162 ^a
- Albumin to Creatinine Ratio (ACR) ([1]; Lisinopril plus Saline, week 3): 13069 ± 3295 ^a
- Albumin to Creatinine Ratio (ACR) ([1]; Lisinopril plus Saline, week 6): 11584 ± 3132 ^a
- Albumin to Creatinine Ratio (ACR) ([1]; Lisinopril plus Saline, week 8): 12484 ± 4626 ^a
- Albumin to Creatinine Ratio (ACR) ([1]; Lisinopril plus Saline, week 10): 20429 ± 4998 ^a
- Albumin to Creatinine Ratio (ACR) ([1]; Lisinopril plus Saline, week 12): 19075 ± 6268 ^a
- deaths over the course of the study ([1]; Lisinopril plus saline group (N=9)): 2
- Final Blood Glucose [1, 5]: 466 mg/dL
- Final Body Weight [1, 5]: 61.8 g
- Heart Weight [1, 5]: 227 mgs
- Kidney Weight [1, 5]: 392 mgs
- Serum Creatinine [1, 5]: 0.130 mg/dL
- Initial Blood Glucose [1, 6]: 444 mg/dL
- Initial Body Weight [1, 6]: 61.6 g

Compound: IVLSLDVPIGLLQILLEQEKQEKEKQQAK*ENAQILAQV-NH2 [Compound 56, K* at position 29 bonded with ([2-(2-Amino-ethoxy)-ethoxy]-acetyl)2-γE-CO—(CH2)16—COOH; C-terminal primary amide]
- EC50 (human CRHR2b; [2]): 1.17 nM
